In patent US12448383B2, “Compounds and methods for treatment of viral infections” (priority 2022, dated 2025):

Key:
[1] = tested on: SARS Coronavirus 2 recombinant with NanoLuc (SARS-CoV2-NLuc) in A549-hACE2 cells; assay: organism not typed; format: cell-based; conditions: 48 h; read-out: SARS-CoV2 EC50
[2] = CC50 MT4 cytotoxicity (Cell-Titer Glo); format: cell-based; conditions: human
How it was run: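 Uninfected MT-4 and HEp-2 cells cultured 4-5 days at 37° C with 3-fold serially diluted compound (15 nM to 100,000 nM). Viability read by Cell-Titer Glo luminescence; untreated and 2 μM puromycin wells set 100% and 0%. CC50 from non-linear regression as concentration reducing viability by 50%.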

Plasma stability = format: in vitro ADME; parameters: unit not given here; conditions: 37° C., 2 μM substrate
How it was run: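 Reaction mixture was sampled at 0.05, 0.5, 1, 2, 3 and 4 hr into quench solution containing internal standard, then centrifuged and diluted with water. Remaining analyte was measured by LC-MS on a Q-Exactive using a formic acid/acetonitrile gradient, with 5 ppm mass tolerance.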

[3] = tested on: Caco-2 cells (clone C2BBe1); assay: CACO-2 permeability; format: in vitro ADME; parameters: unit not given here; conditions: for DM Caco2 A to B: apical to basolateral, donor pH 6.5, receiver pH 7.4; for DM Caco2 B to A: basolateral to apical
How it was run: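 Caco-2 monolayers grown 21 days on collagen-coated transwells and checked for integrity by TEER. Donor buffer was HBSS/HEPES/glucose pH 6.5 with 200 μM BNPP; receiver was pH 7.4 with BSA. Compounds were dosed apically or basolaterally for A-to-B and B-to-A transport, with receiver sampling at 1 and 2 h, LC-MS/MS analysis and percent recovery.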

[4] = Thermodynamic solubility in pH7 buffered solution; conditions: 50 mM phosphate buffer pH7, 150 mM NaCl, ambient temperature, 24 hours
How it was run: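 Solid shaken 24 h at ambient temperature in 50 mM phosphate buffer pH7 with 150 mM NaCl. Supernatant diluted in 30:70 acetonitrile:water and quantified by UPLC-UV.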

[5] = Stability in pH2 buffered solution; format: physicochemical; conditions: pH2 phosphate buffer, 40° C.; for pH 2 Stability 24 h % AN: Table N2
How it was run: (§1)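 Compounds diluted from 1 mg/mL acetonitrile stock to 50 μg/mL in 50 mM phosphate buffer with 150 mM NaCl at pH2 or pH7, held at 40° C. for 24 hrs. UPLC sampling at 0, 3, 6, 9, 12 hrs, plus 24 hrs from oven-stored duplicate; reported as % area normalized of compound peak.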

[6] = Stability in pH7 buffered solution; format: physicochemical; conditions: pH7 phosphate buffer, 40° C., Table N2
How it was run: as §1

Compound	EC50 [1] [µM]	CC50 [2] [µM]	STA Human Plasma 37 (Plasma stability)	DM Caco2 A to B [3]	DM Caco2 B to A [3]	Sol pH 7 [4]	pH 2 Stability 24 h % AN [5] [% AN]	pH 7 Stability 24 h % AN [6] [% AN]	Stability at pH2, 0 hr [5] [% AN]	Stability at pH2, 3 hr [5] [% AN]	Stability at pH2, 6 hr [5] [% AN]	Stability at pH2, 9 hr [5] [% AN]	Stability at pH2, 12 hr [5] [% AN]	Stability at pH2, 24 hr [5] [% AN]
CC12CCC(C1)C(C)(C)C2OC(=O)OC[C@H]1O[C@@](C#N)(c2ccc3c(N)ncnn23)[C@H](O)[C@@H]1O (mixture of isomers) [Compound 48, ((2R,3S,4R,5R)-5-(4-aminopyrrolo[2,1-f][1,2,4]triazin-7-yl)-5-cyano-3,4-dihydroxytetrahydrofuran-2-yl)methyl (1,3,3-trimethylbicyclo[2.2.1]heptan-2-yl) carbonate]	14.2	25.5	1584	6.19	12.52	0.19	100	99						
CC(C)OC(=O)OC[C@H]1O[C@@](C#N)(c2ccc3c(N)ncnn23)[C@H](O)[C@@H]1O [Compound 4, [(2R,3S,4R,5R)-5-(4-aminopyrrolo[2,1-f][1,2,4]triazin-7-yl)-5-cyano-3,4-dihydroay-tetrahydrofuran-2-yl]methyl isopropyl carbonate]	2.67	> 50	107.92	0.545	5.29	1.85	98	97	98.5	98.3	98.5	98.4	98.5	98.3
CCOC(=O)OC[C@H]1O[C@@](C#N)(c2ccc3c(N)ncnn23)[C@H](O)[C@@H]1O [Compound 6, ((2R,3S,4R,5R)-5-(4-aminopyrrolo[2,1-f][1,2,4]triazin-7-yl)-5-cyano-3,4-dihydroxytetrahydrofuran-2-yl)methyl ethyl carbonate]	4.42	> 50	55.852	0.21	2.77	3.02	100	100						
CC(C)(C)OC(=O)OC[C@H]1O[C@@](C#N)(c2ccc3c(N)ncnn23)[C@H](O)[C@@H]1O [Compound 46, ((2R,3S,4R,5R)-5-(4-aminopyrrolo[2,1-f][1,2,4]triazin-7-yl)-5-cyano-3,4-dihydroxytetrahydrofuran-2-yl)methyl tert-butyl carbonate]	4.3	> 50	553.13	0.76	10.66	0.45	4	8						
CC1(OC(=O)OC[C@H]2O[C@@](C#N)(c3ccc4c(N)ncnn34)[C@H](O)[C@@H]2O)CCCCC1 [Compound 47, ((2R,3S,4R,5R)-5-(4-aminopyrrolo[2,1-f][1,2,4]triazin-7-yl)-5-cyano-3,4-dihydroxytetrahydrofuran-2-yl)methyl (1-methylcyclohexyl) carbonate]	3.36	> 50	1584	1.68	11.38	0.1	1	3						
CC(C)(OC(=O)OC[C@H]1O[C@@](C#N)(c2ccc3c(N)ncnn23)[C@H](O)[C@@H]1O)c1ccncc1 [Compound 49, ((2R,3S,4R,5R)-5-(4-aminopyrrolo[2,1-f][1,2,4]triazin-7-yl)-5-cyano-3,4-dihydroxytetrahydrofuran-2-yl)methyl (2-(pyridin-4-yl)propan-2-yl) carbonate]	14.3	> 50	1584	0.13	3.48	2.03	97	94						
CC1(C)[C@@H]2CC[C@@]1(C)[C@@H](OC(=O)OC[C@H]1O[C@@](C#N)(c3ccc4c(N)ncnn34)[C@H](O)[C@@H]1O)C2 [Compound 51, ((2R,3S,4R,5R)-5-(4-aminopyrrolo[2,1-f][1,2,4]triazin-7-yl)-5-cyano-3,4-dihydroxytetrahydrofuran-2-yl)methyl ((1R,2S,4R)-1,7,7-trimethylbicyclo[2.2.1]heptan-2-yl) carbonate]	7.83	38.3	1366.8	4.35	17.19	0.08	98	97						
CC(C)C(=O)O[C@H]1[C@@H](OC(=O)C(C)C)[C@](C#N)(c2ccc3c(N)ncnn23)O[C@@H]1COC(=O)OC(C)(C)C [Compound 58, (2R,3R,4R,5R)-2-(4-aminopyrrolo[2,1-f][1,2,4]triazin-7-yl)-5-(((tert-butoxycarbonyl)oxy)methyl)-2-cyanotetrahydrofuran-3,4-diyl bis(2-methylpropanoate)]	2.24	27.1	1584	5.67	6.86	0.02	2	7						
CC(C)OC(=O)OC[C@H]1O[C@@](C#N)(c2ccc3c(N)ncnn23)[C@H](OC(=O)C(C)C)[C@@H]1OC(=O)C(C)C [Compound 59, (2R,3R,4R,5R)-2-(4-aminopyrrolo[2,1-f][1,2,4]triazin-7-yl)-2-cyano-5-(((isopropoxycarbonyl)oxy)methyl)tetrahydrofuran-3,4-diyl bis(2-methylpropanoate)]	4.16	> 50	84.318	11.61	17.7	0.01	98	93	100.0	100.0	100.0	100.0	98.9	97.9
CC(=O)O[C@H]1[C@@H](OC(C)=O)[C@](C#N)(c2ccc3c(N)ncnn23)O[C@@H]1COC(=O)OC(C)C [Compound 65, (2R,3R,4R,5R)-2-(4-aminopyrrolo[2,1-f][1,2,4]triazin-7-yl)-2-cyano-5-(((isopropoxycarbonyl)oxy)methyl)tetrahydrofuran-3,4-diyl diacetate]	3.64	> 50	14.9	3.07	7.23	0.045	90	80						
